Assay results: EP0830600B1, “FUNCTIONAL BIOASSAY FOR G-PROTEIN COUPLED RECEPTOR AGONISTS AND ANTAGONISTS” (Praecis Pharmaceuticals Incorporated, priority 1995, dated 1996)

Tests used:
[1] = test system: untransfected CHO DUKX B 1 cells; test: MTT cell viability, control untransfected CHO cells; format: cell-based, Chinese Hamster; details: carbachol or pirenzepine; 5 days; Figure 2A
[2] = test system: untransfected CHO cells; test: Cell morphology, control untransfected CHO cells; format: cell-based, Chinese Hamster; details: cells not expressing the recombinant β2-adrenergic receptor
Description: . Several days later, cells were analyzed by photomicroscopy to determine the effect of treatment on cell morphology. […]. Salbutamol induced both a change in cell shape (i.e., elongation of the cells) and an alignment of the cells with each other. […]. Assessment of the agonist or antagonist properties of individual compounds or libraries of compounds can be achieved by, for example, microscopic observation of the cells, or alternatively, by video digitizing techniques to quantify cell shape changes and/or cell alignment changes. […]

[3] = target: T1, human β2-adrenergic receptor (Homo sapiens, UniProt P07550); test: Cell morphology (photomicroscopy) of β2-adrenergic receptor-expressing cell line; format: cell-based; details: several days
T1 construct: expressed in transfected cells
Description: Several days later, cells were analyzed by photomicroscopy to determine the effect of treatment on cell morphology. […] Assessment of the agonist or antagonist properties of individual compounds or libraries of compounds can be achieved by, for example, microscopic observation of the cells, or alternatively, by video digitizing techniques to quantify cell shape changes and/or cell alignment changes.

T1 sequence (P07550 whole entry): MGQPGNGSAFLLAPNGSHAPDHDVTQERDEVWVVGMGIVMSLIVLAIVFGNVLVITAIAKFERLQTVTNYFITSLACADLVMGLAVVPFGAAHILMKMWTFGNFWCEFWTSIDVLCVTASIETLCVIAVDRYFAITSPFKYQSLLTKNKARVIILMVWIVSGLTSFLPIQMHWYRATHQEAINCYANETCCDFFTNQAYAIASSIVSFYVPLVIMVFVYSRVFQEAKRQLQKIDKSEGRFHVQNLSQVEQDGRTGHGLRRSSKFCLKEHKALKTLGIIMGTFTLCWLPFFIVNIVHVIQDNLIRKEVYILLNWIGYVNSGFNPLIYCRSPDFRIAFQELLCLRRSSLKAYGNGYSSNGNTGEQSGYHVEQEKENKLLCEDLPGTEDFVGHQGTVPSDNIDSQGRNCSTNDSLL

In the case of `CN1CCN(CC(=O)N2c3ccccc3C(=O)Nc3cccnc32)CC1` [pirenzepine], the “viability of untransfected CHO cells (MTT)” value [1] was “little effect”.
`CC(C)(C)NCC(O)c1ccc(O)c(CO)c1` (centres unmarked) [salbutamol] was tested, and the “change in cell shape or alignment on untransfected CHO cells” value [2] was “no detectable change in cell shape or alignment”.
With `COc1ccc(OC)c(C(O)C(C)NC(C)(C)C)c1` (centres unmarked) [butoxamine] the “cell morphology, antagonism of salbutamol effect” value ([3]; 10 nM butoxamine together with salbutamol) was “indistinguishable from control cells” and the “effect of treatment on cell morphology (cell shape and alignment)” value ([3]; compound alone (salbutamol 1 nM), photomicroscopy, Figure 4) was “no detectable change in cell shape or alignment”.
For `C[N+](C)(C)CCOC(N)=O` [carbachol], the “viability of untransfected CHO cells (MTT)” value [1] was “little effect”.
